Legend:
[1] = Antioxidant screening experiments: stability of E5564 to free-radical oxidation; conditions: for Comments (effectiveness of antioxidant in stabilizing E5564 to oxidation): 18-22 hours
Excerpt: We tested several antioxidant compounds to determine whether they impact the stability of E5564 to free-radical oxidation.

[2] = Relative stability of E5564 in aqueous solution by formation of major oxidative degradants (FIG. 1); assay type: physicochemical; conditions: inclusion of BHA, 7 μg/vial
Procedure: FIG. 1 is a graph showing the relative stability of E5564 in aqueous solution prepared with different drug substance lots, as measured by the formation of major oxidative degradants.
The following is a detailed description of an example of a method for formulating E5564. As is discussed further below, key features of this method include the following. A small amount (7 μg/vial) of butylated hydroxyanisole (BHA) was added to the formulation to prevent oxidation of the E5564 in aqueous solution. […] In addition, the sodium content of the solution was lowered by replacing sodium phosphate salts with phosphoric acid for pH adjustment, to enhance micelle size stability during the freeze-drying manufacturing step, and a high shelf temperature was used in the freeze-drying step of the process.

[3] = Stabilization of E5564 micelle size during lyophilization (freeze-drying); conditions: for Micelle Size (hydrodynamic diameter): after lyophilization; for Stabilizing the micelle size of E5564 during freeze-drying: disaccharide in formulation
[4] = time 0-4 hours, E5564 solution with the labelled antioxidant
[5] = time 18-22 hours, E5564 solution with the labelled antioxidant (row 'none' = E5564 without antioxidant)
[6] = time 0 hours, E5564 solution with the labelled antioxidant (row 'none' = E5564 without antioxidant)

Structure (SMILES)	Comments (effectiveness of antioxidant in stabilizing E5564 to oxidation) [1]	E5564 conc. (% initial) [1, 4]	E5564 conc. (% initial) [1, 5]	E5564 conc. (% initial) [1, 6]	Major Oxidative Degradant [1, 5]	further results
O[C@H](CS)[C@H](O)CS (racemic) [dithiothreitol]	effective					
O=C1O[C@H]([C@@H](O)CO)C(O)=C1O [Ascorbic Acid]	Not useful, sta-	100 % initial	97.4 % initial			
CCCCCCCCCCCCCCCC(=O)OC[C@H](O)[C@H]1OC(=O)C(O)=C1O [Ascorbyl Palmitate]	Not useful, sta-	100 % initial	92.4 % initial			
COc1ccc(O)c(C(C)(C)C)c1 [BHA, butylated hydroxyanisole]	Effective		102.3 % initial	100 % initial	0.27	Stability of E5564 drug product in solution [2]: increases its stability; Major Oxidative Degradant [1, 6]: 0.68
Cc1cc(C(C)(C)C)c(O)c(C(C)(C)C)c1 [BHT, butylated hydroxytoluene]	Effective		102.8 % initial	100 % initial		
CCCCCC/C=C\CCCCCCCCCC(=O)N[C@H]1[C@H](OC[C@H]2O[C@H](OP(=O)([O-])[O-])[C@H](NC(=O)CC(=O)CCCCCCCCCCC)[C@@H](OCCCCCCCCCC)[C@@H]2O)O[C@H](COC)[C@@H](OP(=O)([O-])[O-])[C@@H]1OCC[C@@H](CCCCCCC)OC.[Na+].[Na+].[Na+].[Na+] [E5564]	Rapid degradation		91.3 % initial	100 % initial	6.02	Stability of micelle size ([3]; 2 mM Na+ in formulation (excluding Na+ from the drug)): good stability; Maintaining the desired micelle size during freeze-drying ([3]; 10 mM Na+ in formulation (excluding sodium from the drug)): works for some, but not all, lots; Micelle Size (hydrodynamic diameter) ([3]; 1% (w/v) lactose in formulation): 16 nm; Micelle Size (hydrodynamic diameter) ([3]; 2% (w/v) lactose in formulation): 13 nm; Micelle Size (hydrodynamic diameter) ([3]; 5% (w/v) lactose in formulation): 8 nm; Micelle Size (hydrodynamic diameter) ([3]; 10% (w/v) lactose in formulation): 7 nm; Major Oxidative Degradant [1, 6]: 1.12
OCC(O)CS (centres unmarked) [Monothioglycerol, monothioglycerol]	Effective	100 % initial	101.3 % initial			
CCCOC(=O)c1cc(O)c(O)c(O)c1 [Propyl Gallate, propyl gallate]	Effective		100.6 % initial	100 % initial		
O=S([O-])[O-].[Na+].[Na+] [Sodium Sulfite, sodium sulfite]	Effective	100 % initial	101.8 % initial		0.25	Major Oxidative Degradant [1, 4]: 0.13
O=S([O-])([O-])=S.[Na+].[Na+] [Sodium Thiosulfate, sodium thiosulfate]	Effective	100 % initial	100.2 % initial		0.19	Major Oxidative Degradant [1, 4]: 0.09
CC(=O)Oc1c(C)c(C)c2c(c1C)CCC(C)(CCC[C@H](C)CCC[C@H](C)CCCC(C)C)O2 (some centres unmarked) [Vitamin E Acetate]		100 % initial	94.2 % initial			
OC[C@H]1O[C@@H](O[C@H]2[C@H](O)[C@@H](O)C(O)O[C@@H]2CO)[C@H](O)[C@@H](O)[C@H]1O (some centres unmarked) [lactose]						Stabilizing the micelle size of E5564 during freeze-drying [3]: effective
OC[C@H]1O[C@@](CO)(O[C@H]2O[C@H](CO)[C@@H](O)[C@H](O)[C@H]2O)[C@@H](O)[C@@H]1O [sucrose]						Stabilizing the micelle size of E5564 during freeze-drying [3]: effective

— patent US20080095786A9, “Compositions And Methods For Preventing And Treating Endotoxin-Related Diseases And Conditions” (priority 2003, published 2008)
